Reference: US9045470B2, “Compounds and compositions as TLR activity modulators” (IRM LLC, priority 2009, dated 2015)

What was measured:
human TLR7 = target: T1, human TLR7 (Homo sapiens, UniProt Q9NYK1); assay: Reporter gene assay: HEK293 cells stably transfected with human TLR7 and NF-kB-driven luciferase reporter; format: cell-based
T1 construct: expressed in transfected cells; host or cells: HEK 293 (human embryonic kidney 293), stably transfected; co-transfected pNifty-Luciferase reporter
T1 sequence (Q9NYK1 27-1049): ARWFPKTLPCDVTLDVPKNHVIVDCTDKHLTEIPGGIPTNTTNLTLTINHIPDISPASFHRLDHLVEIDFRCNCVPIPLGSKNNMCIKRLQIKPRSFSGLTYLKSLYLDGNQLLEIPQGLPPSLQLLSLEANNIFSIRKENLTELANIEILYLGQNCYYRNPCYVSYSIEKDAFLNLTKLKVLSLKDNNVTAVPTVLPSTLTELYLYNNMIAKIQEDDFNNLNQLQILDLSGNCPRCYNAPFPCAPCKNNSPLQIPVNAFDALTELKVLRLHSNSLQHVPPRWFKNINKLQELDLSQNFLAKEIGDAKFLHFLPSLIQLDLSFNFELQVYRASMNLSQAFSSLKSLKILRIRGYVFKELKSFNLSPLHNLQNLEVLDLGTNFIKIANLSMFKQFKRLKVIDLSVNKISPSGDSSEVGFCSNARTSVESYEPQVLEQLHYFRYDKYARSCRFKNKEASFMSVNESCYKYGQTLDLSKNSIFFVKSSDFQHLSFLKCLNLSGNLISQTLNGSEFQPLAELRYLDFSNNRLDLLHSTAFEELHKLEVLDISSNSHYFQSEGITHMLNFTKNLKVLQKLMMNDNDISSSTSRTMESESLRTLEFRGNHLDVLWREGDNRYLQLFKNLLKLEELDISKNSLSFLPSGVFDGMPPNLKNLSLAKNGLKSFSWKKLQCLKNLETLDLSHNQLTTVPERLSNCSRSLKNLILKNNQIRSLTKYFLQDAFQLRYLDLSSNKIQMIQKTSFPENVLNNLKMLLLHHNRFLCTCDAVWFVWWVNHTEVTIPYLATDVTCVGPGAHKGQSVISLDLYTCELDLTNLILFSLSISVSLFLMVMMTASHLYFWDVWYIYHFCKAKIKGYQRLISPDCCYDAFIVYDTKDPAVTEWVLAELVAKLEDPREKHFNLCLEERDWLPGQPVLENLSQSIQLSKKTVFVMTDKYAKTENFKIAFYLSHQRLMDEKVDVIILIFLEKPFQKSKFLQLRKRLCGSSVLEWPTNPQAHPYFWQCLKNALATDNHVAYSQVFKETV
Method: Human embryonic kidney 293 (HEK 293) cells were stably transfected with human TLR7 and an NF-kB-driven luciferase reporter vector (pNifty-Luciferase). As a control assay, normal Hek293 transfected with pNifty-Luc were used. Cells were cultured in DMEM supplemented with 2 mM L-glutamine, 10% heart inactivated FBS, 1% penicillin and streptomycin, 2 μg/ml puromycin (InvivoGen #ant-pr-5) and 5 μg/ml of blasticidin (Invitrogen #46-1120). Bright-Glo™ Luciferase assay buffer and substrate were supplied by Promega #E263B and #E264B (assay substrate and buffer respectively). 384 well clear-bottom plates were supplied by Greiner bio-one (#789163-G) and were custom bar-coded plates.
Cells were plated at 25,000 cells/well in 384-well plates in a final volume of 50 μl of media. Cells were allowed to adhere to the plates after overnight (18 hours) culture at 37° C. and 5% CO2. Serially diluted experimental and positive control compounds were then dispensed to each well and incubated for 7 hours at 37° C. and 5% CO2. Cells stimulated with DMSO alone also serve as negative controls. After the incubation, 30 μl of the pre-mix assay buffer and substrate buffer were added to each well according to manufacturer's instructions.
The EC50 value in those experiments is given as that concentration of the test compound in question that provoke a response halfway between the baseline and maximum responses. […] Such EC50 values are obtained relative to the activity of resiquimod set to 100%.

[1] = Binding to aluminum hydroxide adjuvant, HPLC of formulation supernatant; format: physicochemical; details: aluminum hydroxide 2 mg/mL, room temperature and 37° C., 1, 5 and 24 hours
Method: The binding of the compounds of Formula (I) provided herein to aluminum-containing adjuvants at pH 9 and pH 6.5 was evaluated using HPLC to monitor the presence of the compound of Formula (I) in the supernatant.
(§1) Compound 1 (0.5 mg/mL) was dissolved in 10 mM NaOH and added to aluminum hydroxide adjuvant (2 mg/mL) resulting in a 100 μg/dose formulation. The supernatant was evaluated with HPLC using a ballistic gradient (from 10% CH3CN-0.1% TFA to 100% CH3CN-0.1% TFA in 2.5 minutes) on a C18 ([…]×4.6 mm) ACE column at 45° C. To evaluate the effect of supernatant temperature and incubation time on binding, the supernatant was evaluated at a supernatant temperature of room temperature and at 37° C. after 1 hour, 5 hours and 24 hours. A control without aluminum hydroxide was also evaluated.
(§2) Compound 5 (1 mg/mL) was dissolved in 10 mM NaOH and added to aluminum hydroxide adjuvant (2 mg/mL) resulting in a 100 μg/dose formulation. The supernatant was evaluated with HPLC using a ballistic gradient (from 10% CH3CN-0.1% TFA to 100% CH3CN-0.1% TFA in 2.5 minutes) on a C18 ([…]×4.6 mm) ACE column at 45° C. To evaluate the effect of supernatant temperature and incubation time on binding, the supernatant was evaluated at a supernatant temperature of room temperature and at 37° C. after 1 hour, 5 hours and 24 hours. A control without aluminum hydroxide was also evaluated.
as §1, with “formulation. The pH of the solution was adjusted to pH 6.5 using HCl.” for “formulation.”
as §2, with “histidine buffer (1 mg/mL)” for “NaOH”

[2] = Desorption from aluminum hydroxide with KH2PO4 and n-butanol extraction, HPLC; format: physicochemical
Method: An organic solvent extraction method was used to evaluate whether compound 1 was covalently bound to aluminum hydroxide. The formulation was prepared as follows: 2 mg/ml aluminum hydroxide, 100 μg/dose compound 1, 10 mM histidine buffer) and the pH was adjusted to 9. A control formulation without aluminum hydroxide was also prepared.
One ml of the formulation containing Alum was mixed with 1 ml of KH2PO4 1M pH 9 (0.5M final conc, pH 9) and was left in gentle agitation overnight at 37° C. to allow desorption of compound 1 (compound 5) from the aluminum hydroxide via ligand exchange with the phosphate anions. Organic extraction was then performed: 1 ml of each sample was mixed with 1 ml of n-butanol and vortexed. After the formation of 2 phases, the upper phase (butanol) was recovered, dried with N2 and resuspended in MeOH/10 mM NaOH. HPLC analysis was run both for the formulation supernatants and for the butanol extracted samples (C18 column; 0-100% B in 2 min; A=0.1% TFA in H2O; B=0.1% TFA in ACN).
The adsorption of compound 16 and compound 18 to aluminum hydroxide was also evaluated using the alum formulation described above for compound 1. […] In addition, SDS PAGE analysis of antigen binding in the presence of compound 16 or compound 18 was carried out as described above.

[3] = Binding to alum in 10 mM histidine buffer, LC-MS/MS of supernatant; format: physicochemical; details: 10 mM histidine buffer pH 6.8; final compound 0.1 mg/mL; 37° C. for 5 hours; 100% minus % unbound
Method: The resulting solution was diluted 10-fold with blank histidine buffer to a final compound concentration of 0.1 mg/mL. Diluted solutions were incubated at 37° C. for 5 hours. The samples were centrifuged at 14,000 rpm for 10 minutes to pellet the insoluble. The supernatant (along with an internal standard) was then evaluated by LC-MS/MS using a ballistic gradient (from 5% CH3CN-0.5% formic acid to 95% CH3CN-1.0% formic acid in 3.5 minutes) on a Waters Atlantis dC18 (50 mm×2.1 mm) column at room temperature against a calibration curve prepared at known compound concentrations ranging from 0.005 to 50 μM. The concentration in the supernatant was calculated as % unbound to alum compared to control; the % bound to alum was calculated as 100% minus % unbound.

What does the source list for Cc1ccc2c(c1)nc(N)c1ncc(CCc3ccc(OCCCC(F)(F)P(=O)(O)O)cc3C)cc12 [Compound 5, 4-(4-(2-(5-amino-8-methylbenzo[f][1,7]naphthyridin-2-yl)ethyl)-3-methylphenoxy)-1,1-difluorobutylphosphonic acid]?
EC50 (human TLR7): 308 nM; presence of compound in supernatant when aluminum hydroxide included in formulation (HPLC) ([1]; pH 6.7, 10 mM histidine buffer): not present in the supernatant; presence of compound in supernatant when aluminum hydroxide included in formulation (HPLC) ([1]; pH 9, dissolved in 10 mM NaOH): not present in the supernatant

For Cc1ccc2c(c1)nc(N)c1ncc(CCc3ccc(OCCCP(=O)(O)O)cc3C)cc12 [Compound 1, 3-(4-(2-(5-amino-8-methylbenzo[f][1,7]naphthyridin-2-yl)ethyl)-3-methylphenoxy)propylphosphonic acid], which EC50 (human TLR7) is on record?
The EC50 was 226 nM.

And the “quantity of compound in supernatant of formulation treated with KH2PO4 (desorption by phosphate anions)” value ([2]; 0.5M KH2PO4 pH 9, overnight 37° C.)?
The value was “Increased quantities”.

What about the “Concentration (mg/ml), phosphate/extract” value ([2]; alum formulation treated with 0.5M KH2PO4, n-butanol extracted sample) of the same compound?
The value was 0.119 ± 0.001 mg/mL.

What about the “Concentration (mg/ml), phosphate supernatent” value ([2]; alum formulation treated with 0.5M KH2PO4 pH 9 overnight at 37° C., supernatant) of the same compound?
The value was 0.059 ± 0.001 mg/mL.

What about the “Concentration (mg/ml), extaract” value ([2]; alum formulation, n-butanol extracted sample) of the same compound?
The value was 0.027 ± 0.001 mg/mL.

And the “Concentration (mg/ml), control/extract” value ([2]; control formulation without aluminum hydroxide, n-butanol extracted sample)?
The value was 0.217 ± 0.001 mg/mL.

And the “Concentration (mg/ml), supernatant control” value ([2]; control formulation without aluminum hydroxide, supernatant)?
The value was 0.329 ± 0.001 mg/mL.

What about the “Concentration (mg/ml), supernatent” value ([2]; formulation with 2 mg/ml aluminum hydroxide, 10 mM histidine buffer pH 9, supernatant) of the same compound?
The value was 0.005 ± 0.001 mg/mL.

What about the “presence of compound in supernatant when aluminum hydroxide included in formulation (HPLC)” value ([1]; pH 6.5 (adjusted with HCl)) of the same compound?
Its value is “not present in the supernatant”.

What about the “presence of compound in supernatant when aluminum hydroxide included in formulation (HPLC)” value ([1]; pH 9, dissolved in 10 mM NaOH) of the same compound?
The value was “not present in the supernatant”.

What does the source list for Cc1ccc2c(c1)nc(N)c1ncc(CCc3ccc(OCCOCCOCCC(F)(F)P(=O)(O)O)cc3C)cc12 [Compound 6, 3-(2-(2-(4-(2-(5-amino-8-methylbenzo[f][1,7]naphthyridin-2-yl)ethyl)-3-methylphenoxy)ethoxy)ethoxy)-1,1-difluoropropylphosphonic acid]?
EC50 (human TLR7): 1640 nM; % Alum bound in Histidine buffer [3]: 98.2%

Which results are given for Cc1cc(OCCCC(F)(F)P(=O)(O)O)ccc1CCc1cnc2c(N)nc3cc(CCC(=O)O)ccc3c2c1 [Compound 16, 3-(5-amino-2-(4-(4,4-difluoro-4-phosphonobutoxy)-2-methylphenethyl)benzo[f][1,7]naphthyridin-8-yl)propanoic acid]?
EC50 (human TLR7): 137 nM; % Alum bound in Histidine buffer [3]: 94.5%; compound in supernatant after addition of aluminum hydroxide (HPLC) ([2]; alum formulation as described for compound 1): no compound was observed in the supernatant

Which EC50 (human TLR7) does the source give for Cc1cc(OCCOCCOCCP(=O)(O)O)ccc1CCc1cnc2c(N)nc3cc(CCC(=O)O)ccc3c2c1 [Compound 20, 3-(5-amino-2-(2-methyl-4-(2-(2-(2-phosphonoethoxy)ethoxy)ethoxy)phenethyl)benzo[f][1,7]naphthyridin-8-yl)propanoic acid] here?
Its EC50 is 384 nM.

What about the “% Alum bound in Histidine buffer” value [3] of the same compound?
Its value is 97.0%.
